These results are taken from patent publication US7820202B2, “Extended release particle dispersion” (Laboratorios Farmaceuticos Rovi S.A., priority 2000, dated 2010).

A short description of data set [1]: Encapsulation efficiency of drug in PLGA extended release particles. Format: physicochemical. The following applies: poly(d,l-lactide-co-glycolide) particles formed by mixing two liquid preproducts (ethyl acetate polymer solution / aqueous phase). Here is the method:
A solution of poly(d,l-lactide-co-glycolide) (75/25, RG752 or 50/50, RG 502H or 503H from Böhringer Ingelheim) (40% w/w) in ethyl acetate (syringe 1) (200μl) (first liquid preproduct) is mixed with an aqueous phase (water for injection, Tween 80- or alternatively Pluronic F 68-, Na carboxy methylcellulose) (syringe 2) (2ml) (second liquid preproduct) by connecting the two syringes with a connector or by screwing the two syringes together and by pushing the plungers forward and backward (25 mixing cycles). The extended release particles are thereby formed, which are dispersed in the aqueous phase and which are ready to be injected.
(§1) Like example 1. In addition, a water-insoluble salt of leuprolide, leuprolide oleate, was formed from aqueous leuprolide acetate and sodium oleate solutions. The insoluble salt was separated from the aqueous phase, dried and then added to the poly(d,l-lactide-co-glycolide) solution to form the first liquid preproduct, wherein the drug is dispersed and/or dissolved in the polymer solution. The first liquid preproduct is mixed with and dispersed in the second liquid preproduct.

Data set [2] can be described thus: Drug release from extended release particles in pH 7.4 phosphate buffer. Format: physicochemical. As to conditions: pH 7.4 phosphate buffer (simulates body fluids); compared to the water-soluble salt, leuprolide acetate.
From the text: as §1

For data set [3] the following is noted: cited from earlier work.

Some results are limits rather than exact numbers.

As to leuprolide oleate, in data set [1], the encapsulation efficiencies is on record as above 85%. Also, the “retardation in drug release” value in data set [2] is reported as “even more pronounced retardation in drug release”.
For the molecule `CCOC(C)=O` [ethylacetate], the solubility in water entry in data set [3] is “approx. 10%”.
With `CC(=O)OCC(COC(C)=O)OC(C)=O` [triacetin], the solubility in water entry in data set [3] is given as “approx. 8%”.
